Read-outs that look alike come from different tables or passages of the source. Where only a bound is given, the exact number is not on record here.

Data set [1] concerns normal human skin fibroblasts. The data set is described as follows: Cell viability (MTT) assay, fibroblasts. The format is cell-based. As to the method: (§1) The viability of MCF-7 breast cancer cells was measured by the method of Carmichael using 3-(4,5-dimethylthiazol-2-yl)-2,5-diphenyltetrazolium (Table 2). In terms of reduction in cell viability, the compounds rank in MCF-7 cells in the order chlorambucil > 4j > 4i > 4h > 4n > 4k > 4l > 4a > 4g > 4b–4f.
(§2) Cultured normal human skin fibroblasts and MCF-7 human breast cancer cells were maintained in DMEM supplemented with 10% fetal bovine serum (FBS), 50 U/cm^3 penicillin, and 50 μg/cm^3 streptomycin at 37 °C. Cells were cultured in Costar flasks and subconfluent cells were detached with 0.05% trypsin and 0.02% EDTA in calcium-free phosphate-buffered saline, counted in hemocytometers, and plated at 5 × 10^5 cells per well of 6-well plates (Nunc) in 2 cm^3 of growth medium (DMEM without phenol red with 10% CPSR1). Cells reached about 80% of confluency at day 3, and in most cases, such cells were used for the assays.
(§3) The assay was performed according to the method of Carmichael using 3-(4,5-dimethylthiazole-2-yl)-2,5-diphenyltetrazolium bromide (MTT). Confluent cells cultured for 24 h with various concentrations of studied compounds in 6-well plates were washed three times with PBS and then incubated for 4 h in 1 cm^3 of MTT solution (0.5 mg/cm^3 of PBS) at 37 °C in 5% CO2 in an incubator. The medium was removed and 1 cm^3 of […] HCl in absolute isopropanol was added to the cells attached. Absorbance of converted dye in the living cells was measured at a wavelength of 570 nm. Cell viability of breast cancer cells cultured in the presence of ligands was calculated as percentage of controlled cells.

Data set [2] relates to MCF-7 human breast cancer cells. The data set is described as follows: Cell viability (MTT) assay, MCF-7. Type of data set: cell-based. As to the method:
as §1, §2, §3

The test system of another data set is Fibroblasts. In words: DNA synthesis assay ([3H]-thymidine incorporation), fibroblasts. Type of data set: cell-based, human. Conditions: read-out: IC50 inhibition of [3H]-thymidine incorporation into DNA. For orientation: Dividing cells build labelled thymidine or BrdU into new DNA.
Data set [3] deals with MCF-7 breast cancer cells. In words: DNA synthesis assay ([3H]-thymidine incorporation), MCF-7. The format is cell-based, human. On the procedure: We studied the effect of compounds 4a–4n and chlorambucil on DNA synthesis in MCF-7 breast cancer cells (Table 3).
as §2
MCF-7 cells were seeded in 6-well plates and were incubated with varying concentrations of […] or chlorambucil and 0.5 μCi of [^3H]-thymidine for 24 h at 37 °C [51]. The cells were then harvested by trypsinization, washed with cold phosphate-buffered saline, and centrifuged for 10 min at 1500 g several times (4–5) until the dpm in the washes were similar to the reagent control. Radioactivity was determined by liquid scintillation counting. [^3H]-thymidine uptake was expressed as dpm/well.

The test system of data set [4] is human breast cancer cell line (MCF-7 and MDA-MB-231). Further details: method as in PMID 26133068. Conditions: cell line not specified (MCF-7 and MDA-MB-231 tested); cited from earlier work.
The nature of data set [5]: Cell viability (MTT) assay, fibroblasts. Type of data set: cell-based, human. On the procedure:
as §1, §2, §3

Setting [6] is: Fibroblasts, 24 h, mean ± SD of four independent experiments.
[7] abbreviates: MCF-7 cells, 24 h, mean ± SD of four independent experiments, read-out: IC50 inhibition of [3H]-thymidine incorporation into DNA.
Where [8] appears, read: Homo sapiens, MCF7, 24 h, read-out: IC50 cytotoxicity (cell viability, MTT).
Where [9] appears, read: Homo sapiens, Fibroblast, Fibroblasts, 24 h, mean ± SD of four independent experiments.
The mark [10] stands for this setting: Homo sapiens, MCF7, MCF-7 cells, 24 h, mean ± SD of four independent experiments, read-out: IC50 inhibition of [3H]-thymidine incorporation into DNA.

Take “5,6-Diphenyl-1,2,4-triazine-3-yl isobutyl disulfide [Compound 4c]”: the IC50 (in data set [1]; in data set [2]; with Fibroblasts (setting [6]); in data set [3] (setting [7])) was over 200 µM throughout.
“5,6-Diphenyl-1,2,4-triazine-3-yl tert-butyl disulfide [Compound 4d]”: the IC50 (in data set [1]; in data set [2]; in the data set on Fibroblasts (setting [6]); in data set [3] (setting [7])) was over 200 µM each time.
Consider `c1ccc(-c2nnc(SSc3nnc(-c4ccccc4)c(-c4ccccc4)n3)nc2-c2ccccc2)cc1` [5,5′,6,6′-tetraphenylbis(1,2,4-triazin-3-yl)disulfane], for which the IC50 in data set [4] is 25 µM.
As for `O=C(O)CCCc1ccc(N(CCCl)CCCl)cc1` [Chlorambucil, reference compound], the IC50 at 24 h in data set [5] (normal human skin fibroblasts, 24 h, mean ± SD of four independent experiments, read-out: IC50 cytotoxicity (cell viability, MTT)) is 150 ± 1 µM. For the same compound, the IC50 is 97 ± 2 µM in data set [2] (setting [8]); 120 ± 1 µM in the data set with Fibroblasts (Homo sapiens, Fibroblast); 47 ± 2 µM in data set [3] (Homo sapiens, MCF7, read-out: IC50 inhibition of [3H]-thymidine incorporation into DNA).
In data set [5] (human), `CC(C)SSc1nnc(-c2ccccc2)c(-c2ccccc2)n1` [Compound 4a, 5,6-Diphenyl-1,2,4-triazine-3-yl isopropyl disulfide] showed an IC50 at 24 h of over 200 µM. Further, the IC50 in data set [2] (setting [8]) was 190 ± 2 µM; in the data set on Fibroblasts (setting [9]), over 200 µM; in data set [3] (setting [10]), 188 ± 2 µM.
In data set [5] (human), `CCCCSSc1nnc(-c2ccccc2)c(-c2ccccc2)n1` [Compound 4b, 5,6-Diphenyl-1,2,4-triazine-3-yl n-butyl disulfide] yielded an IC50 at 24 h of over 200 µM. Also, the IC50 (in data set [2] (setting [8]); in the data set on Fibroblasts (setting [9]); in data set [3] (setting [10])) was over 200 µM each time.
For `CCCCCSSc1nnc(-c2ccccc2)c(-c2ccccc2)n1` [Compound 4e, 5,6-Diphenyl-1,2,4-triazine-3-yl n-pentyl disulfide], in data set [5] (human), the IC50 at 24 h was over 200 µM. For the same compound, the IC50 (in data set [2] (setting [8]); in the data set with Fibroblasts (setting [9]); in data set [3] (setting [10])) was over 200 µM throughout.
As for `CCCCCCCCCCCCSSc1nnc(-c2ccccc2)c(-c2ccccc2)n1` [Compound 4f, 5,6-Diphenyl-1,2,4-triazine-3-yl n-dodecyl disulfide], the IC50 at 24 h in data set [5] (human) was over 200 µM. For the same compound, the IC50 (in data set [2] (setting [8]); in the data set on Fibroblasts (setting [9]); in data set [3] (setting [10])) was over 200 µM throughout.
With `OCCCCCCCCCCCSSc1nnc(-c2ccccc2)c(-c2ccccc2)n1` [Compound 4g, 5,6-Diphenyl-1,2,4-triazine-3-yl 11-hydroxyundecyl disulfide], the IC50 at 24 h in data set [5] (human) was over 200 µM. Moreover, the IC50 in data set [2] (setting [8]) is 197 ± 1 µM; with Fibroblasts (setting [9]), over 200 µM; in data set [3] (setting [10]), 188 ± 1 µM.
The compound `c1ccc(SSc2nnc(-c3ccccc3)c(-c3ccccc3)n2)cc1` [Compound 4h, 5,6-Diphenyl-1,2,4-triazine-3-yl phenyl disulfide] had an IC50 at 24 h in data set [5] (human) of over 200 µM. Moreover, the IC50 in data set [2] (setting [8]) is 115 ± 2 µM; with Fibroblasts (setting [9]), over 200 µM; in data set [3] (setting [10]), 68 ± 2 µM.
`Cc1ccc(SSc2nnc(-c3ccccc3)c(-c3ccccc3)n2)cc1` [Compound 4i, 5,6-Diphenyl-1,2,4-triazine-3-yl p-tolyl disulfide] gave an IC50 at 24 h in data set [5] (human) of over 200 µM. Moreover, the IC50 in data set [2] (setting [8]) was 108 ± 1 µM; in the data set on Fibroblasts (setting [9]), over 200 µM; in data set [3] (setting [10]), 60 ± 2 µM.
In the case of `COc1ccc(SSc2nnc(-c3ccccc3)c(-c3ccccc3)n2)cc1` [Compound 4j, 5,6-Diphenyl-1,2,4-triazine-3-yl 4-methoxyphenyl disulfide], in data set [5] (human), the IC50 at 24 h is over 200 µM. Moreover, the figures for the IC50 (in data set [2] (setting [8]); in the data set on Fibroblasts (setting [9]); in data set [3] (setting [10])) were 102 ± 2 µM, over 200 µM and 59 ± 2 µM, respectively.
In turn, `Clc1ccc(SSc2nnc(-c3ccccc3)c(-c3ccccc3)n2)cc1` [Compound 4k, 5,6-Diphenyl-1,2,4-triazine-3-yl 4-chlorophenyl disulfide] had an IC50 at 24 h in data set [5] (human) of over 200 µM. The IC50 in data set [2] (setting [8]) was 121 ± 2 µM; in the data set on Fibroblasts (setting [9]) it was over 200 µM; in data set [3] (setting [10]), 83 ± 1 µM.
In the case of `O=[N+]([O-])c1ccc(SSc2nnc(-c3ccccc3)c(-c3ccccc3)n2)cc1` [Compound 4l, 5,6-Diphenyl-1,2,4-triazine-3-yl 4-nitrophenyl disulfide], in data set [5] (human), the IC50 at 24 h is over 200 µM. Besides, the IC50 in data set [2] (setting [8]) is 140 ± 1 µM; in the data set with Fibroblasts (setting [9]) it was over 200 µM; in data set [3] (setting [10]), 142 ± 1 µM.
Regarding `c1ccc(-c2nnc(SSc3nc4ccccc4s3)nc2-c2ccccc2)cc1` [Compound 4n, 5,6-Diphenyl-1,2,4-triazine-3-yl benzothiazol-2-yl disulfide], the IC50 at 24 h in data set [5] (human) is over 200 µM. Further, the IC50 is 119 ± 2 µM in data set [2] (setting [8]), over 200 µM in the data set with Fibroblasts (setting [9]) and 75 ± 2 µM in data set [3] (setting [10]).
